{"source": "PubChem BioAssay (NCI)", "assay_in_all_cases": "NCI tumour cell line growth inhibition, 384-well format", "key": {"[1]": {"system": "786-0 renal"}, "[2]": {"system": "A498 renal"}, "[3]": {"system": "A549 NSCLC"}, "[4]": {"system": "ACHN renal"}, "[5]": {"system": "BT-549 breast"}, "[6]": {"system": "CAKI-1 renal"}, "[7]": {"system": "COLO 205 colon"}, "[8]": {"system": "DU-145 prostate"}, "[9]": {"system": "EKVX NSCLC"}, "[10]": {"system": "HCT-116 colon"}, "[11]": {"system": "HCT-15 colon"}, "[12]": {"system": "HL-60(TB) leukemia"}, "[13]": {"system": "HOP-62 NSCLC"}, "[14]": {"system": "HOP-92 NSCLC"}, "[15]": {"system": "HS 578T breast"}, "[16]": {"system": "HT29 colon"}, "[17]": {"system": "IGROV1 ovarian"}, "[18]": {"system": "K-562 leukemia"}, "[19]": {"system": "KM12 colon"}, "[20]": {"system": "M14 melanoma"}, "[21]": {"system": "MALME-3M melanoma"}, "[22]": {"system": "MCF7 breast"}, "[23]": {"system": "MDA-MB-231 breast"}, "[24]": {"system": "MDA-MB-435 melanoma"}, "[25]": {"system": "MDA-MB-468 breast"}, "[26]": {"system": "MOLT-4 leukemia"}, "[27]": {"system": "NCI-H226 lung"}, "[28]": {"system": "NCI-H23 lung"}, "[29]": {"system": "NCI-H322M lung"}, "[30]": {"system": "NCI-H460 NSCLC"}, "[31]": {"system": "NCI-H522 lung"}, "[32]": {"system": "OVCAR-3 ovarian"}, "[33]": {"system": "OVCAR-4 ovarian"}, "[34]": {"system": "OVCAR-5 ovarian"}, "[35]": {"system": "OVCAR-8 ovarian"}, "[36]": {"system": "PC-3 prostate"}, "[37]": {"system": "RXF 393 renal"}, "[38]": {"system": "SF-268 CNS"}, "[39]": {"system": "SF-295 CNS"}, "[40]": {"system": "SF-539 CNS"}, "[41]": {"system": "SK-MEL-2 melanoma"}, "[42]": {"system": "SK-MEL-28 melanoma"}, "[43]": {"system": "SK-MEL-5 melanoma"}, "[44]": {"system": "SN12C renal"}, "[45]": {"system": "SNB-19 CNS"}, "[46]": {"system": "SNB-75 CNS"}, "[47]": {"system": "SR leukemia"}, "[48]": {"system": "SW-620 colon"}, "[49]": {"system": "T-47D breast"}, "[50]": {"system": "TK-10 renal"}, "[51]": {"system": "U251 glioblastoma"}, "[52]": {"system": "UACC-257 melanoma"}, "[53]": {"system": "UACC-62 melanoma"}, "[54]": {"system": "UO-31 renal"}}, "note": "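Abbreviation: GI50, concentration required for 50% inhibition of growth. TGI denotes the concentration required for complete inhibition of growth.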", "data": [{"smiles": "COc1cc(C(=O)O)ccc1NC(=O)[C@@H]1N[C@@H](CC(C)(C)C)[C@](C#N)(c2ccc(Cl)cc2F)[C@H]1c1cccc(Cl)c1F", "values": [{"measurement": "GI50", "setting": "[1]", "value": 3.54, "unit": "µM"}, {"measurement": "TGI", "setting": "[1]", "value": 13.7, "unit": "µM"}, {"measurement": "GI50", "setting": "[2]", "value": 40.6, "unit": "nM"}, {"measurement": "TGI", "setting": "[2]", "value": 4.26, "unit": "µM"}, {"measurement": "GI50", "setting": "[3]", "value": 195, "unit": "nM"}, {"measurement": "TGI", "setting": "[3]", "value": 4.76, "unit": "µM"}, {"measurement": "GI50", "setting": "[4]", "value": 30, "unit": "nM"}, {"measurement": "TGI", "setting": "[4]", "value": 1490, "unit": "nM"}, {"measurement": "GI50", "setting": "[5]", "value": 3.03, "unit": "µM"}, {"measurement": "TGI", "setting": "[5]", "value": 6.21, "unit": "µM"}, {"measurement": "GI50", "setting": "[6]", "value": 19.3, "unit": "nM"}, {"measurement": "TGI", "setting": "[6]", "value": 13.7, "unit": "µM"}, {"measurement": "GI50", "setting": "[7]", "value": 5.06, "unit": "µM"}, {"measurement": "TGI", "setting": "[7]", "value": 18.1, "unit": "µM"}, {"measurement": "GI50", "setting": "[8]", "value": 5.75, "unit": "µM"}, {"measurement": "TGI", "setting": "[8]", "value": 17.5, "unit": "µM"}, {"measurement": "GI50", "setting": "[9]", "value": 5.88, "unit": "µM"}, {"measurement": "GI50", "setting": "[10]", "value": 52.6, "unit": "nM"}, {"measurement": "TGI", "setting": "[10]", "value": 1850, "unit": "nM"}, {"measurement": "GI50", "setting": "[11]", "value": 3.51, "unit": "µM"}, {"measurement": "GI50", "setting": "[12]", "value": 2070, "unit": "nM"}, {"measurement": "TGI", "setting": "[12]", "value": 3.51, "unit": "µM"}, {"measurement": "GI50", "setting": "[13]", "value": 8.06, "unit": "µM"}, {"measurement": "GI50", "setting": "[14]", "value": 1940, "unit": "nM"}, {"measurement": "TGI", "setting": "[14]", "value": 4.35, "unit": "µM"}, {"measurement": "GI50", "setting": "[15]", "value": 3.75, "unit": "µM"}, {"measurement": "TGI", "setting": "[15]", "value": 11.9, "unit": "µM"}, {"measurement": "GI50", "setting": "[16]", "value": 4.23, "unit": "µM"}, {"measurement": "TGI", "setting": "[16]", "value": 13.1, "unit": "µM"}, {"measurement": "GI50", "setting": "[17]", "value": 2630, "unit": "nM"}, {"measurement": "TGI", "setting": "[17]", "value": 13.8, "unit": "µM"}, {"measurement": "GI50", "setting": "[18]", "value": 4.19, "unit": "µM"}, {"measurement": "TGI", "setting": "[18]", "value": 13.9, "unit": "µM"}, {"measurement": "GI50", "setting": "[19]", "value": 63.4, "unit": "nM"}, {"measurement": "TGI", "setting": "[19]", "value": 1380, "unit": "nM"}, {"measurement": "GI50", "setting": "[20]", "value": 1980, "unit": "nM"}, {"measurement": "TGI", "setting": "[20]", "value": 11.2, "unit": "µM"}, {"measurement": "GI50", "setting": "[21]", "value": 86.9, "unit": "nM"}, {"measurement": "TGI", "setting": "[21]", "value": 11.9, "unit": "µM"}, {"measurement": "GI50", "setting": "[22]", "value": 33.9, "unit": "nM"}, {"measurement": "TGI", "setting": "[22]", "value": 1040, "unit": "nM"}, {"measurement": "GI50", "setting": "[23]", "value": 3.48, "unit": "µM"}, {"measurement": "TGI", "setting": "[23]", "value": 12, "unit": "µM"}, {"measurement": "GI50", "setting": "[24]", "value": 3.71, "unit": "µM"}, {"measurement": "TGI", "setting": "[24]", "value": 12.2, "unit": "µM"}, {"measurement": "GI50", "setting": "[25]", "value": 3.79, "unit": "µM"}, {"measurement": "GI50", "setting": "[26]", "value": "< 10", "unit": "nM"}, {"measurement": "TGI", "setting": "[26]", "value": 19.5, "unit": "nM"}, {"measurement": "GI50", "setting": "[27]", "value": 20.2, "unit": "nM"}, {"measurement": "TGI", "setting": "[27]", "value": 128, "unit": "nM"}, {"measurement": "GI50", "setting": "[28]", "value": 4.77, "unit": "µM"}, {"measurement": "GI50", "setting": "[29]", "value": 10.3, "unit": "µM"}, {"measurement": "TGI", "setting": "[29]", "value": 22, "unit": "µM"}, {"measurement": "GI50", "setting": "[30]", "value": 4.31, "unit": "µM"}, {"measurement": "TGI", "setting": "[30]", "value": 14.5, "unit": "µM"}, {"measurement": "GI50", "setting": "[31]", "value": 3.74, "unit": "µM"}, {"measurement": "TGI", "setting": "[31]", "value": 10.9, "unit": "µM"}, {"measurement": "GI50", "setting": "[32]", "value": 2350, "unit": "nM"}, {"measurement": "TGI", "setting": "[32]", "value": 5.27, "unit": "µM"}, {"measurement": "GI50", "setting": "[33]", "value": 5.83, "unit": "µM"}, {"measurement": "TGI", "setting": "[33]", "value": 18.3, "unit": "µM"}, {"measurement": "GI50", "setting": "[34]", "value": 8.12, "unit": "µM"}, {"measurement": "TGI", "setting": "[34]", "value": 20.2, "unit": "µM"}, {"measurement": "GI50", "setting": "[35]", "value": 4.65, "unit": "µM"}, {"measurement": "GI50", "setting": "[36]", "value": 4.32, "unit": "µM"}, {"measurement": "TGI", "setting": "[36]", "value": 14.2, "unit": "µM"}, {"measurement": "GI50", "setting": "[37]", "value": 2590, "unit": "nM"}, {"measurement": "TGI", "setting": "[37]", "value": 5.85, "unit": "µM"}, {"measurement": "GI50", "setting": "[38]", "value": 3.87, "unit": "µM"}, {"measurement": "TGI", "setting": "[38]", "value": 12.5, "unit": "µM"}, {"measurement": "GI50", "setting": "[39]", "value": 3.77, "unit": "µM"}, {"measurement": "GI50", "setting": "[40]", "value": 3.09, "unit": "µM"}, {"measurement": "TGI", "setting": "[40]", "value": 11.6, "unit": "µM"}, {"measurement": "GI50", "setting": "[41]", "value": 2690, "unit": "nM"}, {"measurement": "TGI", "setting": "[41]", "value": 6.28, "unit": "µM"}, {"measurement": "GI50", "setting": "[42]", "value": 2730, "unit": "nM"}, {"measurement": "TGI", "setting": "[42]", "value": 6.12, "unit": "µM"}, {"measurement": "GI50", "setting": "[43]", "value": 1150, "unit": "nM"}, {"measurement": "TGI", "setting": "[43]", "value": 2440, "unit": "nM"}, {"measurement": "GI50", "setting": "[44]", "value": 4.7, "unit": "µM"}, {"measurement": "TGI", "setting": "[44]", "value": 15.9, "unit": "µM"}, {"measurement": "GI50", "setting": "[45]", "value": 4.3, "unit": "µM"}, {"measurement": "TGI", "setting": "[45]", "value": 14.1, "unit": "µM"}, {"measurement": "GI50", "setting": "[46]", "value": 6.6, "unit": "µM"}, {"measurement": "TGI", "setting": "[46]", "value": 18.7, "unit": "µM"}, {"measurement": "GI50", "setting": "[47]", "value": "< 10", "unit": "nM"}, {"measurement": "TGI", "setting": "[47]", "value": 12.2, "unit": "nM"}, {"measurement": "GI50", "setting": "[48]", "value": 4.53, "unit": "µM"}, {"measurement": "TGI", "setting": "[48]", "value": 14.2, "unit": "µM"}, {"measurement": "GI50", "setting": "[49]", "value": 3.16, "unit": "µM"}, {"measurement": "GI50", "setting": "[50]", "value": 5.05, "unit": "µM"}, {"measurement": "TGI", "setting": "[50]", "value": 16.6, "unit": "µM"}, {"measurement": "GI50", "setting": "[51]", "value": 3.68, "unit": "µM"}, {"measurement": "GI50", "setting": "[52]", "value": 228, "unit": "nM"}, {"measurement": "TGI", "setting": "[52]", "value": 657, "unit": "nM"}, {"measurement": "GI50", "setting": "[53]", "value": "< 10", "unit": "nM"}, {"measurement": "TGI", "setting": "[53]", "value": 1440, "unit": "nM"}, {"measurement": "GI50", "setting": "[54]", "value": 75.8, "unit": "nM"}, {"measurement": "TGI", "setting": "[54]", "value": 464, "unit": "nM"}]}]}
